Earlier results, collected in patent US20100239707A1 (priority 2007, published 2010).
“Also recorded” adds a separate entry of the source.

How the values were obtained:
[1] = tested on: cell culture cells
[2] = not given; remark: listed apart in the source
[3] = tested on: myotubes
[4] = unprimed

Compound	effect on muscle fibers / myotubes [3]	further results
OO [hydrogen peroxide]	–	concentration inducing apoptosis [1]: micromolar concentrations
[Ca+2].[Cl-].[Cl-] [anhydrous CaCl2, CaCl2]	–	intravenous LD50: about 40 mg/kg
CC[C@]1(O)C[C@@H]2CN(CCc3c([nH]c4ccccc34)[C@@](C(=O)OC)(c3cc4c(cc3OC)N(C)[C@H]3[C@@](O)(C(=O)OC)[C@H](OC(C)=O)[C@]5(CC)C=CCN6CC[C@]43[C@@H]65)C2)C1 [vinblastine]	causes the disassembly of myotubes	oral LD50 [2]: 300 to 400 mg/kg
lipopolysaccharide [LPS]	–	LD50 [4]: ~1 mg/kg
COC(=O)Nc1nc2ccc(C(=O)c3cccs3)cc2[nH]1 [nocodazole]	causes the disassembly of myotubes; also recorded: result in cell fission with cells that exhibit DNA sysnthesis and cell growth	–
COc1ccc(CNc2nc(NCc3ccc(OC)cc3)c3ncn(C(C)C)c3n2)cc1 [myoseverin]	result in cell fission with cells that exhibit DNA sysnthesis and cell growth	–
COc1cc2c(c(OC)c1OC)-c1ccc(OC)c(=O)cc1[C@@H](NC(C)=O)CC2 [colchicine]	causes the disassembly of myotubes	–
CC(=O)O[C@H]1C(=O)[C@@]2(C)[C@H]([C@H](OC(=O)c3ccccc3)[C@]3(O)C[C@H](OC(=O)[C@H](O)[C@@H](NC(=O)c4ccccc4)c4ccccc4)C(C)=C1C3(C)C)[C@]1(OC(C)=O)CO[C@@H]1C[C@@H]2O [taxol]	causes the disassembly of myotubes	intravenous LD50: 33 mg/kg
